Assay results as given in article PMC9961069 (Metabolites, 2023).
Read-outs that look alike come from different tables or passages of the source.

Key:
[1] = test system: T1, thymidine phosphorylase (TP) in MDA-MB-468 cell lysates; assay: Lysate CETSA for thymidine phosphorylase; assay type: binding, Human; details: 10 μM, 65 °C, n = 1
T1 construct: MDA-MB-468 lysates were treated with 10 μM each; endogenous in cells; host or cells: MDA-MB-468

MDA-MB-468 cells = assay: Resazurin viability assay with or without folinic acid, MDA-MB-468; assay type: cell-based, Human; details: 72 h; for Rescue of viability impairment by folinic acid: MDA-MB-468, 10 μM ± 300 μg/mL FA
Description: (§1) The incorporation and metabolism of resazurin to resorufin was used to monitor cell viability. MDA-MB-468, MCF7, and MDA-MB-231 cells were grown in 96-well plates with a total of 5000 cells per well in a total volume of 180 μL for 24 h, as described above. After 24 h of growth, cells were treated with increasing concentrations of compounds (0.0457–100 μM) for 72 h. A vehicle control was also performed. […] The volume of treatment added to each well was 20 μL. For folinic acid rescue experiments, 5000 cells were treated with 10 μM compound with or without 300 μg/mL folinic acid (Supelco). After 72 h of treatment, resazurin was added to a final concentration of 44 μM, and cells were incubated for an additional 4 h at 37 °C. The fluorescence of resorufin was monitored on a Synergy MX microplate reader (BioTek) using an excitation wavelength of 540 nm and an emission wavelength of 600 nm. Percent viability relative to the DMSO control was determined. Each treatment was performed in triplicate, and each individual experiment was repeated three times (n = 3).

purified human DHFR = biological target: T2, purified human DHFR (Homo sapiens, UniProt P00374); assay: DHFR enzymatic inhibition assay (NADPH absorbance at 340 nm); assay type: biochemical; details: 137.5 μM DHF, 125 μM NADPH, n = 2
T2 construct: made in house; host or cells: E. coli BL21 (DE3) T1R pRARE2, pNIC-Bsa4 plasmid
T2 sequence (P00374 1-187): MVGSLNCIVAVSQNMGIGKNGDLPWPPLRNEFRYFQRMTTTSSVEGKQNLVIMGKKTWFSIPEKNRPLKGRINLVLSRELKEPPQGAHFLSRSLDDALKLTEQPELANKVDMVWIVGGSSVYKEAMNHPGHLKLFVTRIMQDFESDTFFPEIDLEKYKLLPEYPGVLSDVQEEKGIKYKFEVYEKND
Description: Working stocks of each inhibitor were created so that the final concentration of DMSO in each reaction was 2% in a final reaction volume of 100 μL. […] Reactions were prepared on ice in 384-well plates. […] Consumption of NADPH by measuring absorbance at 340 nm was used to monitor the progress of the reaction. Readings were taken every 5 min for 1 h at 37 °C using a Synergy MX microplate reader (BioTek).
Percent inhibition relative to the no-inhibitor control was determined using Equation (1). (1) % Inhibition=A340Inhibitor−A340DMSO Control/A340No DHFR−A340DMSO Control×100
Percent inhibition data were then fit to the four-parameter logistic model (Equation (2)) in GraphPad Prism 9.4.1 to determine half-maximal inhibitory concentrations (IC50):(2) y=Bottom+Top−Bottom/1+IC50/x^Hill slope where y represents the percent inhibition, x represents the concentration of inhibitor (μM), the bottom and top represent the bottom and top plateaus, and the Hill slope represents the slope factor. Each experiment contained duplicates of each sample, and each experiment was performed 2 times (n = 2). An ordinary one-way ANOVA was used to test for statistical significance between treatments.

leukemia = test system: leukemia; set-up: method as in PMID 5479856, PMID 5479852, PMID 5241406; details: early studies in the 1970s; cited from earlier work
MDA-MB-231 cells = assay: Resazurin viability assay with or without folinic acid, MDA-MB-231; assay type: cell-based, Human; details: 72 h
Description: as §1

MCF-7 cells = assay: Resazurin viability assay with or without folinic acid, MCF-7; assay type: cell-based, Human; details: 72 h
Description: as §1

[2] = test system: MDA-MB468, MDA-MB-231, and MCF-7 breast cancer cell lines; assay: Dose-response viability in breast cancer cell lines (statements not split by line); assay type: cell-based, Human; details: 0–100 μM, 72 h
Description: as §1

Row | SMILES | TP stabilization by CETSA [1] | Rescue of viability impairment by folinic acid (MDA-MB-468 cells) | IC50 (purified human DHFR; 200 nM DHFR, read-out: IC50) [nM] | IC50 (purified human DHFR; IC50, 200 nM DHFR) [nM] | Anti-leukemic activity in vivo (leukemia) | Relative Viability (%) – Inhibitor + FA Treatment (MDA-MB-468 cells; MDA-MB-468, 10 μM + 300 μg/mL folinic acid) [%] | Relative Viability (%) – Inhibitor Alone (MDA-MB-468 cells; MDA-MB-468, 10 μM, relative to DMSO) [%] | Relative Viability (%) – Inhibitor + FA Treatment (MDA-MB-231 cells; MDA-MB-231, 10 μM + 300 μg/mL folinic acid) [%] | Rescue of viability impairment by folinic acid (MDA-MB-231 cells; MDA-MB-231, 10 μM ± 300 μg/mL FA) | Relative Viability (%) – Inhibitor Alone (MDA-MB-231 cells; MDA-MB-231, 10 μM, relative to DMSO) [%] | Relative Viability (%) – Inhibitor + FA Treatment (MCF-7 cells; MCF-7, 10 μM + 300 μg/mL folinic acid) [%] | Relative Viability (%) – Inhibitor Alone (MCF-7 cells; MCF-7, 10 μM, relative to DMSO) [%] | Phenotypic response in viability dose-response [2]
1 | CCc1nc(N)nc(N)c1-c1ccc(Cl)cc1 [Pyr, Pyrimethamine] | no stabilization of TP was detected | statistically significant rescue |  |  |  |  |  |  |  |  |  |  | 
2 | CC1(C)N=C(N)N=C(N)N1c1ccc(CCCCc2ccc(S(=O)(=O)F)cc2)c(Cl)c1 [compound 127159] |  | rescued in all but MDA-MB-468 cells | 750 ± 320 | < 1000 | promising anti-leukemic activity in vivo | 77.23 ± 7.2 | 70.45 ± 7.8 | 106.42 ± 15.0 | largest amplitude of rescue | 50.08 ± 8.8 | 99.99 ± 3.2 | 67.68 ± 13.3 | little effect at low concentrations and cytotoxicity at higher concentrations
